Key:
[1] = tested on: OVA-induced allergic rhinitis; assay: Rat allergic nasal inflammation (OVA-induced allergic rhinitis), intranasal administration; format: in vivo, SD rat; conditions: all dose groups of the peptide; bilateral nasal cavities 50 μL/side, 4 weeks, continued OVA provocation
Description: SD rat modeling: two stages of intraperitoneal injection for sensitization and intranasal dripping for stimulation. Ovalbumin was injected intraperitoneally, and 1 mg ovalbumin (V-class Sigma, USA) was dissolved in 1 ml normal saline, and 30 mg of aluminum hydroxide was added as an immunologic adjuvant. Each rat was intraperitoneally injected 1 ml ovalbumin suspension prepared above with 1 ml/time every other day and for 7 times in total; and stimulated intranasally with ovalbumin on the 15th day; 20 mg ovalbumin (V-class Sigma, USA) were dissolved in 1 ml normal saline to be prepared into a 2% solution; and the 2% ovalbumin solution was used for stimulation by nasal dripping; and 50 ul nasal drips were administered in each of the nasal cavities of each rat for 7 consecutive days.
Blank control group: 30 mg of aluminum hydroxide+1 ml of normal saline were mixed evenly, and then injected intraperitoneally; and the method was the same as the above.
Normal saline was dripped into nasal cavities on the 15th day.
After the final nasal dripping was performed, each rat was observed and evaluated according to a scoring table: Sneezing, nose scratching, gasping and nasal secretions
1. Administration way: a drug was administered with a micro-sampling gun, bilateral nasal cavities of a rat were administered with 50 μL/side, after being administered for 20 min, a 2% ovalbumin solution was administered to bilateral nasal cavities of the rat; 50 μL/side nasal dripping was administered for provocation; the above treatment was performed for 4 consecutive weeks to observe the pharmacodynamic effect.
High-dose synthetic peptide brap: a synthetic peptide brap freeze-dried powder (5 mg/bottle) was taken, and 1.63 ml sterile saline solution was added for dissolving;
medium-dose synthetic peptide brap: a synthetic peptide brap freeze-dried powder (5 mg/bottle) was taken, and 4.89 ml sterile saline solution was added for dissolving;
low-dose synthetic peptide brap: a synthetic peptide brap freeze-dried powder (5 mg/bottle) was taken, and 14.67 ml sterile saline solution was added for dissolving;

[2] = tested on: LPS-induced acute lung injury; assay: LPS-induced acute lung injury in mice, HE pathological examination of lung tissues; format: in vivo, Balb/C mice; conditions: 16 mg/kgBW via tail vein once/day; LPS 5 mg/kgBW i.p.
Description: 1. Grade-SPF male Balb/C mice, body weight: 20±2 g, and n=48
3. Grouping and treatment: mice were randomly divided into 8 groups (A-H), 6 pcs./group;
3-1: 3 different treatments were given for 3 consecutive days respectively before modeling:
A. normal control group: normal saline was injected via the tail vein for once/day;
B. LPS model group: normal saline was injected via the tail vein for once/day;
C. model sp2 administration group: sp2 (16 mg/kgBW) was injected via the tail vein for once/day;
D. model high-dose brap administration group: brap (16 mg/kgBW) was injected via the tail vein for once/day;
E. model medium-dose brap administration group: brap (8 mg/kgBW) was injected via the tail vein for once/day;
F. model low-dose brap administration group: brap (4 mg/kgBW) was injected via the tail vein for once/day;
G. model brap intranasal administration group: brap (3 mM) was administered nasal administration on both sides, 15 μl/each side; once a day;
H. model dexamethasone administration group (a positive control group): dexamethasone, DEX, 5 mg/kg was injected intraperitoneally for once a day.
Animals from groups A-H were continuously administered the above treatments for 30 min respectively, then group A was intraperitoneally injected isopyknic normal saline, and other groups were intraperitoneally injected LPS 5 mg/kgBW.
1. Tissue section and extending
2. Tissues were dewaxed and hydrated.
3. Tissues were dyed with a hematoxylin stain for 5-20 min (adjusted according to different tissues and experimental requirements), and washed by tap water.
4. Then, tissues were differentiated by a differentiation solution for 30 s.
5. Tissues were soaked by tap water for 15 min or warm water (about 50° C.) for 5 min.
6. Tissues were put in an Eosin stain for 2 min (adjusted according to different tissues and experimental requirements), and washed by tap water.
7. Then, the tissues were soaked by tap water for 5 min.
8. Dehydration by gradient alcohol: Tissues were dehydrated by 95%, 100% I, and 100% II for 1 min each;
9. Transparency by xylene: tissues were subjected to xylene I and II for 10 min.
10. Neutral balsam mounting.
11. Then, it was put and dried in an oven at 60° C., and observed under microscope.

sp2: control synthetic peptide with an amino acid sequence as shown in SEQ ID No: 2 (RVLNGPEEEAAAPAE) [reference compound]
Scoring change before and after treatment [1]: increases | Lung tissue pathology (HE) [2]: inflammatory cell infiltration is obvious

Reference: patent US11401303B2, “Synthetic peptide BRAP and application in preparation of anti-inflammatory drug for COVID-19 thereof” (TAIAN CITY QIHANG BIOTECHNOLOGY CO., priority 2020, dated 2022)
